Data set [1] can be described thus: Stability of the compound in PBS at 500 uM measured for 3 months at pH 7.4 at -20 degC by HPLC analysis. The class given is physicochemical. The settings on record: buffer, pH 7.4, 2190 h.
A short description of data set [2]: Stability of the compound in PBS at 500 uM measured within 144 hrs at pH 7.4 at 37 degC by HPLC analysis. In kind it is physicochemical. To be noted: buffer, pH 7.4, 144 h.
Data set [3] concerns the target T1, Liver carboxylesterase (Sus scrofa, UniProt Q29550).
T1 sequence (Q29550 whole entry): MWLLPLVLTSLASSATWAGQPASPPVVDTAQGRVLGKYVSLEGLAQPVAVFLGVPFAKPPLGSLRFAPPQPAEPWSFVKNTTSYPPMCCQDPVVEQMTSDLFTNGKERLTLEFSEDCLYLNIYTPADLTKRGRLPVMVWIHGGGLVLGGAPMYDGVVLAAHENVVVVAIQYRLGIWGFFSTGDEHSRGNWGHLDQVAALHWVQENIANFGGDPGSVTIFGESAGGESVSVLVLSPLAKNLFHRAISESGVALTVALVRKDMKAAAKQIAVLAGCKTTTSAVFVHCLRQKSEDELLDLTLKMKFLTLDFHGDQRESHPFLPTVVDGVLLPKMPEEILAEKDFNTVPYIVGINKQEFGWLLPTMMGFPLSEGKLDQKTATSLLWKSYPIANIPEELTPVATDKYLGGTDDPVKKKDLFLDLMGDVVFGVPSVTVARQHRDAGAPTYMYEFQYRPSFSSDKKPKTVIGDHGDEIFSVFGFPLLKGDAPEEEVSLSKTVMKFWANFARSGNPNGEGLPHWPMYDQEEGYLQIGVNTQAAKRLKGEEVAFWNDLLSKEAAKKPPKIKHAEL
In words: Prodrug release in PBS assessed as porcine liver esterase-mediated hydrolysis by measuring peak H2S concentration at 500 uM measured at pH 7.4 after 90 mins by methylene blue method. In kind it is ADME. The settings on record: pig, isolated protein, pH 7.4, 1.5 h.

The target in data set [4] is T1, Liver carboxylesterase. Nature of the data set: Prodrug release in PBS assessed as porcine liver esterase-mediated hydrolysis by measuring half-life at 500 uM measured at pH 7.4 by HPLC analysis. In kind it is ADME. The settings on record: pig, isolated protein, pH 7.4, 500 µM.
In data set [5] the target is T2, Prostaglandin G/H synthase 1 (Ovis aries, UniProt P05979).
T2 sequence (P05979 whole entry): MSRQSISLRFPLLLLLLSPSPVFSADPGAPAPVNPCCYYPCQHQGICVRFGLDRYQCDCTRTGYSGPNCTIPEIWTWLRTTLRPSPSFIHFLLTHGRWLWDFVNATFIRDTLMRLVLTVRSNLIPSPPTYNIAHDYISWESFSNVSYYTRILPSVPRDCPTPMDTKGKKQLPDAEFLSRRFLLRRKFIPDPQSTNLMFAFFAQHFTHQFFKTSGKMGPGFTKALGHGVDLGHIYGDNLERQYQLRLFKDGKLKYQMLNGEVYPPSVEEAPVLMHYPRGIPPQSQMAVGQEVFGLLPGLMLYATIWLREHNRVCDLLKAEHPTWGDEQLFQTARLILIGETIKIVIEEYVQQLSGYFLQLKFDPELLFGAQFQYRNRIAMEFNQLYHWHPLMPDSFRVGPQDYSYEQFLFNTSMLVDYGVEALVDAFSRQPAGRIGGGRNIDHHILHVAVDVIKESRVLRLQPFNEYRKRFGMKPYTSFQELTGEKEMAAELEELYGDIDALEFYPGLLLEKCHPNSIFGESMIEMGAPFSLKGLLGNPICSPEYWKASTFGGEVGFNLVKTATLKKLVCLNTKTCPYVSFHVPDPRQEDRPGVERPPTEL
In words: Inhibition of ovine COX1 assessed as reduction in PGF2alpha production using arachidonic acid as substrate preincubated with enzyme for 10 mins followed by substrate addition and measured after 2 mins by ELISA. For orientation: In an ELISA, binding on a coated surface is turned into a signal by an enzyme label.

Data set [6] is described as follows: Stability of the compound in rat plasma assessed as half life by LC-MS/MS analysis. The class given is ADME, cell-free.
Data set [7] concerns Mus musculus. Nature of the data set: Protection against ischemia/reperfusion injury in middle cerebral artery occlusion C57BL/6J mouse model assessed as decrease in infarct size in brain at 100 umol/kg, iv administered within initial 20 mins of ischemia period followed by reperfusion for 24 hrs after 1 hr and 20 mins of ischemia period and measured at 24 hrs post-reperfusion by TTC staining based analysis. In kind it is functional, organism-based. To be noted: dose 100.0 µmol/kg, time 2960.0 min.

The test system of data set [8] is Mus musculus. In words: Protection against ischemia/reperfusion injury in middle cerebral artery occlusion C57BL/6J mouse model assessed as decrease in malondialdehyde level in brain at 100 umol/kg, iv administered within initial 20 mins of ischemia period followed by reperfusion for 24 hrs after 1 hr and 20 mins of ischemia period and measured at 24 hrs post-reperfusion. In kind it is functional, organism-based. The settings on record: dose 100.0 µmol/kg, time 2960.0 min.

Data set [9] deals with T1, Liver carboxylesterase. Nature of the data set: Prodrug release in PBS assessed as porcine liver esterase-mediated hydrolysis by measuring peak H2S concentration at 500 uM measured at pH 7.4 after 80 mins by methylene blue method. The class given is ADME. The settings on record: pig, isolated protein, pH 7.4, 1.333 h.
The test system of data set [10] is Rattus norvegicus. Nature of the data set: Prodrug release in Sprague-Dawley rat assessed as benzoic acid level in blood at 80 umol/kg, iv measured after 1 min by LC-MS/MS analysis. To be noted: in vivo, dose 80 µmol/kg. In kind it is ADME, organism-based.
Data set [11] can be described thus: Stability in Sprague-Dawley rat assessed as parent compound level in blood at 80 umol/kg, iv measured after 5 mins by LC-MS/MS analysis. The class given is ADME, organism-based. To be noted: whole blood, dose 80 µmol/kg, read-out: Stability.
In data set [12] the target is T1, Liver carboxylesterase. Nature of the data set: Prodrug release in PBS assessed as porcine liver esterase-mediated hydrolysis by measuring H2S concentration at 500 uM measured at pH 7.4 after 5 hrs by methylene blue method. The class given is ADME. To be noted: pig, isolated protein, pH 7.4, 5 h.
The test system of data set [13] is Mus musculus. Nature of the data set: Prodrug release in C57BL/6J mouse assessed as increase in H2S concentration in blood at 50 umol/kg, iv measured after 15 mins by gas chromatography. To be noted: in vivo, 0.25 h, dose 50 µmol/kg. In kind it is ADME, organism-based.
In data set [14] the test system is Rattus norvegicus. Nature of the data set: Prodrug release in Sprague-Dawley rat assessed as benzoic acid level in blood at 80 umol/kg, iv measured after 5 mins by LC-MS/MS analysis. The settings on record: in vivo, dose 80 µmol/kg. In kind it is ADME, organism-based.
Data set [15] in a line: Stability in Sprague-Dawley rat assessed as parent compound level in blood at 80 umol/kg, iv measured after 1 min by LC-MS/MS analysis. The class given is ADME, organism-based. To be noted: whole blood, dose 80 µmol/kg, read-out: Stability.
Data set [16] concerns the target T1, Liver carboxylesterase. Nature of the data set: Prodrug release in PBS assessed as porcine liver esterase-mediated hydrolysis at 500 uM measured at pH 7.4 in presence of PMSF by HPLC analysis. The class given is ADME. To be noted: pig, isolated protein, pH 7.4, 500 µM.
Data set [17] concerns the target T1, Liver carboxylesterase. Nature of the data set: Prodrug release in PBS assessed as porcine liver esterase-mediated hydrolysis by measuring peak H2S concentration at 500 uM measured at pH 7.4 after 40 mins by methylene blue method. The class given is ADME. To be noted: pig, isolated protein, pH 7.4, 40 min.
Data set [18] addresses T3, Prostaglandin G/H synthase 2 (Homo sapiens, UniProt P35354).
T3 sequence (P35354 whole entry): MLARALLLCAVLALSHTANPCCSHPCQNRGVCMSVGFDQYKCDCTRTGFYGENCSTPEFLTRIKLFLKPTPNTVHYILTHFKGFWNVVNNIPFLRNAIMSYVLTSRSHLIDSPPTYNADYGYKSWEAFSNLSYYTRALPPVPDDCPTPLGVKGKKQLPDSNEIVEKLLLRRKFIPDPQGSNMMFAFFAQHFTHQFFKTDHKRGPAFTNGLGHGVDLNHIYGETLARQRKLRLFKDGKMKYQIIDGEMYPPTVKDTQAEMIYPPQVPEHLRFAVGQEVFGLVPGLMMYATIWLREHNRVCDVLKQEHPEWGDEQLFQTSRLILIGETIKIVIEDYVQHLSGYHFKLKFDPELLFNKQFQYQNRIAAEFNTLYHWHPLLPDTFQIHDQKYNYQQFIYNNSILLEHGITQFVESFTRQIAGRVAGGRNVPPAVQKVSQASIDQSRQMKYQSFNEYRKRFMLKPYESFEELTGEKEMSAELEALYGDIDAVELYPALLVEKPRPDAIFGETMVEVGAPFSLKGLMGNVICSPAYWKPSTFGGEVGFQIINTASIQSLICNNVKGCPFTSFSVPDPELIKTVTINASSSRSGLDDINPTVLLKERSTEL
Nature of the data set: Inhibition of human recombinant COX2 assessed as reduction in PGF2alpha production using arachidonic acid as substrate preincubated with enzyme for 10 mins followed by substrate addition and measured after 2 mins by ELISA.

From ChEMBL document CHEMBL6120958, “A Highly Atom-Efficient Prodrug Approach to Generate Synergy between H2S and Nonsteroidal Anti-inflammatory Drugs and Improve Safety” (J Med Chem, 2024) come the findings set out here.

Activity calls are given as the source filed them.

Consider `O=C([S-])c1ccc2ccccc2c1.[Na+]`, for which the Stability result in data set [1] and in data set [2] was “Stable” in each case.

On to `COc1ccc(CCC(=O)[S-])cc1.[Na+]`, for which the Stability result in data set [1] and in data set [2] was “Stable” in each case.

As usually defined, the IC50 is the midpoint of a concentration-inhibition curve. Usually half-life stands for the time needed for the level to fall by half in the phase considered. For `COc1ccc2c(c1)c(CC(=O)[S-])c(C)n2C(=O)c1ccc(Cl)cc1.[Na+]`, the Drug metabolism at Liver carboxylesterase [3] came to 29 µM. In addition, at Liver carboxylesterase [4], the t1/2 was 4.45 h. The Stability result in data set [1] and in data set [2] was “Stable” throughout. For the same compound, the IC50 in [5] came out at 7.6 nM. For the same compound, the half-life in [6] was 21.3 h.

With `O=C([S-])Cc1ccc2ccccc2c1.[Na+]`, the Stability entry in data set [1] and in data set [2] was “Stable” throughout.

As for `O=C([S-])Cc1ccccc1.[Na+]`, the Stability result in data set [1] and in [2] was “Stable” throughout.

Turning to `OC(=S)c1ccccc1`, in the data set with Mus musculus [7], the Activity entry was “Active; Comparable Efficacy To Na2S Observed”. In addition, in the data set with Mus musculus [8], the result was Active.

As for `O=C([S-])c1ccccc1.[Na+]`, the Drug metabolism on Liver carboxylesterase [9] is 70 µM; in the data set on Rattus norvegicus [10], 46.4 µM; at Liver carboxylesterase [12] it was “metabolite_detected”; in the data set with Mus musculus [13], “metabolite_detected”; with Rattus norvegicus [14], 78.3 µM; at Liver carboxylesterase [16], “metabolite_notdetected”. Also, in data set [11], the concentration at 5 min is 113 µM. At Liver carboxylesterase [4], the t1/2 turned out to be 2.51 h. For the same compound, the Stability result in data set [1] and in [2] was “Stable” each time. Moreover, in data set [15], the concentration at 1 min came out at 439 µM. Besides, in [6], the half-life stood at 2.17 h.

In the case of `Cc1ccc(CC(=O)[S-])cc1.[Na+]`, the Stability result in data set [1] and in [2] was “Stable” throughout.

With `COc1ccc(C(=O)[S-])cc1.[Na+]`, the Stability entry in data set [1] and in data set [2] was “Stable” each time.

Regarding `O=C([S-])CCc1ccc(Cl)cc1.[Na+]`, at Liver carboxylesterase [4], the t1/2 came to 0.0967 h. In addition, the Stability result in data set [1] and in [2] was “Stable” throughout. At Liver carboxylesterase [17], the Drug metabolism was 129 µM.

As for `Cc1ccc(C(=O)[S-])cc1.[Na+]`, the Stability result in data set [1] and in data set [2] was “Stable” in each case.

As for `COc1ccc2cc([C@H](C)C(=O)O)ccc2c1` [NAPROXEN], the concentration for half-maximal inhibition (IC50) in data set [18] stood at 10600 nM.

As for `O=C([S-])CCc1ccccc1.[Na+]`, the Stability result in data set [1] and in data set [2] was “Stable” throughout.

With `CC(C(=O)[S-])c1ccc(-c2ccccc2)c(F)c1.[Na+]` (centres undefined), the Stability entry in data set [1] and in data set [2] was “Stable” each time. The IC50 in data set [5] amounted to 221 nM. In addition, the half-life in data set [6] turned out to be 4.67 h.

On to `COc1ccc2cc([C@H](C)C(=O)[S-])ccc2c1.[Na+]`, for which the Stability result in data set [1] and in data set [2] was “Stable” each time. Also, in [5], the IC50 is 1300 nM. In data set [6], the half-life is 6.73 h.
